Consider seven molecules from publication PMC6032411, “Synthesis and Biological Evaluation of Zeise’s Salt Derivatives with Acetylsalicylic Acid Substructure” (International Journal of Molecular Sciences, 2018).

Data set [1] deals with HT-29 colon carcinoma cells. The experiment in a line: Antiproliferative effects, crystal violet cell biomass assay, HT-29. Type of data set: cell-based. The note with it: for IC50: 72 h incubation, crystal violet. The procedure: (§1) The growth inhibitory effects of ASA, Zeise’s salt as well as the thereof derived complexes 1a–4a were investigated in vitro against the HT-29 and the MCF-7 cell lines. Thereby, an already published crystal violet assay was employed, in which the cell biomass reduced by the substances was determined as parameter. Cisplatin was applied as positive control.
(§2) The HT-29 colon carcinoma and the MCF-7 breast cancer cell lines were obtained from the cell line service (CLS, Eppelheim, Germany). The HT-29 and the MCF-7 cells were cultivated as a monolayer in Dulbecco’s Modified Eagle Medium (DMEM) containing glucose (4.5 g/L) and lacking phenol red (GE Healthcare, Little Chalfont, UK), supplemented with fetal calf serum (FCS; 10%; Biochrom) and L-glutamine (584 mg/L; GE Healthcare). The cells were cultured in a humidified atmosphere (5% CO2/95% air) at 37 °C and were passaged regularly twice a week. The cell lines were characterized by typing short tandem repeats and routinely monitored for mycoplasma infection.
(§3) The effects of the newly synthesized substances on the cell biomass were determined in vitro while employing a crystal violet assay. The testing was performed following a modified protocol, as previously published. Exponentially growing HT-29 and MCF-7 cells were seeded in 96-well tissue culture plates with a density of 3 × 10^3 and 2 × 10^3 cells, respectively, in 100 µL of completed DMEM per well in quadruples. The plates were kept in a humidified atmosphere (5% CO2/95% air) at 37 °C for 24 h prior to the addition of completed medium containing the vehicle DMF, the positive control Cisplatin, and the compounds to be tested, respectively. After 72 h of incubation, the medium was removed, the cells were washed with PBS and fixed using a solution of glutaraldehyde in PBS (1%, v/v). The cell biomass was examined by staining the chromatin of adherent cells with crystal violet, extraction of the stain with ethanol (70%, v/v) and following measurement of absorbance (λ = 590 nm). The cell viability is given as percentage of cell viability of the vehicle treated control, which was set to 100%. The IC50 values represent the mean ± standard error of mean of ≥2 independent experiments and they were calculated with Prism 7.0 (GraphPad, San Diego, CA, USA) using nonlinear regression and decadal logarithm of the inhibitor versus variable slope equation. The top constraint was set to 100%.

The next data set concerns the target T1, ovine COX-2 (Ovis aries, UniProt P79208).
T1 construct: purchased Cayman Chemicals
T1 sequence (P79208 17-603): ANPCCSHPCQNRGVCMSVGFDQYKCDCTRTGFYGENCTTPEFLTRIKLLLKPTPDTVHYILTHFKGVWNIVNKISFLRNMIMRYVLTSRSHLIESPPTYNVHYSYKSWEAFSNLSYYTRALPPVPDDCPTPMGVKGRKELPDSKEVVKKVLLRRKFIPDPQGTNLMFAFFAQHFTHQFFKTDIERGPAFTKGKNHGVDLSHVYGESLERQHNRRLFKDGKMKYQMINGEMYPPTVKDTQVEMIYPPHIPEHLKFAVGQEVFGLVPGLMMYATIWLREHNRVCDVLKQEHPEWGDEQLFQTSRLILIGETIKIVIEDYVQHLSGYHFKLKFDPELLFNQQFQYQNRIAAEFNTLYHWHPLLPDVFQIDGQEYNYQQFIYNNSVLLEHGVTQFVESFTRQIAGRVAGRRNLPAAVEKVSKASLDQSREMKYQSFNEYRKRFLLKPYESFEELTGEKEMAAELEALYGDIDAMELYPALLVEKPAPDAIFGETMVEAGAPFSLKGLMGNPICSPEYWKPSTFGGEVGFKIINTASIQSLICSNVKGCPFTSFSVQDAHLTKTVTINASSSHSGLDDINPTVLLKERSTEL
The experiment in a line: COX-2 isoenzyme inhibition (COX Inhibitor Screening Assay, enzyme immunoassay). As to conditions: for COX-2 inhibition: 10 µM, incubation 10 min, isolated enzyme. Type of data set: biochemical. The protocol: (§4) The impact of the compounds (10 µM) to inhibit the isoenzymes COX-1 and COX-2, respectively, was investigated (Figure 5).
(§5) The inhibition of both isolated isoenzymes, ovine COX-1 and ovine COX-2, respectively, were investigated at a concentration of 10 µM of the respective substances while employing an enzyme immunoassay (COX Inhibitor Screening Assay, Cayman Chemicals, Ann Arbor, MI, USA). The conduction of the assay was performed following the manufacturer’s protocol. Thereby, the isoenzymes were incubated with the particular compounds for exactly 10 min. The values express the mean of duplicate determinations and they represent the mean ± standard deviation of ≥2 independent experiments. The untreated control was set to 0% inhibition.
(§6) Figure 5 Inhibition of isolated ovine COX-1 and COX-2. Values are given as % COX inhibition calculated from initial activity of vehicle treated enzyme and represent the mean ± standard deviation of ≥2 independent experiments.

The test system of data set [2] is MCF-7 breast cancer cells. The experiment in a line: Antiproliferative effects, crystal violet cell biomass assay, MCF-7. Type of data set: cell-based. The note with it: for IC50: 72 h incubation, crystal violet. The procedure:
as §1, §2, §3

The target in a further data set is T2, ovine COX-1 (Ovis aries, UniProt P05979).
T2 construct: purchased Cayman Chemicals
T2 sequence (P05979 25-600): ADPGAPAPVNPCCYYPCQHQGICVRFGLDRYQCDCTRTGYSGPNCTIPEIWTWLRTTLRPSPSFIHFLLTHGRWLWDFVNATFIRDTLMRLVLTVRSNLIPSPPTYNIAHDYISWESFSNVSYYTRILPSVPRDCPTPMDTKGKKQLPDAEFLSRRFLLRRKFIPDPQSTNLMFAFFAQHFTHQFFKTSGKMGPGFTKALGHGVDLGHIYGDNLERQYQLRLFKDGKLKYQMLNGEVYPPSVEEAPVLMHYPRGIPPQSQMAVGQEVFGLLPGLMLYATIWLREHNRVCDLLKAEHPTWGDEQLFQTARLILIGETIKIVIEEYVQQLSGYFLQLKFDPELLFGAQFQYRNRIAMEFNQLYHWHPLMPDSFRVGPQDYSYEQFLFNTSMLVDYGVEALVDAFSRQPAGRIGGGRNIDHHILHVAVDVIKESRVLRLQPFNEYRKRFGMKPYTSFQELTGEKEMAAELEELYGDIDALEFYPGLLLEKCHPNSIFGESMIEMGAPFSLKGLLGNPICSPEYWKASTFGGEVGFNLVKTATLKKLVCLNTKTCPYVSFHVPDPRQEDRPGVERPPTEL
Nature of the data set: COX-1 isoenzyme inhibition (COX Inhibitor Screening Assay, enzyme immunoassay). Type of data set: biochemical. As to conditions: 10 µM, incubation 10 min, isolated enzyme. The protocol:
as §4, §5, §6

Data set [3] is described as follows: Stability in other media (aqueous conditions, cell culture medium, DMSO). Type of data set: physicochemical. The note with it: degraded immediately after addition.
On the set-up of data set [4]: method as in doi:10.1002/zaac.19603050315. As to conditions: degrades in a redox reaction building acetaldehyde and Pt(0); cited from earlier work.
Data set [5] is described as follows: Evaluation of stability by capillary electrophoresis. Type of data set: physicochemical. From the text:
Capillary electrophoresis (CE) was employed in order to determine the stability of the anionic platinum(II) complexes in aqueous media. Therefore, a method was established that allowed the detection of the respective complex and possible degradation products in a short period of time (for further information on the setup see Section 4). Methanol was chosen as a non-coordinating co-solvent for the sample solutions (final amount of methanol: 50%) in order to guarantee the solubility of decomposition products. In contrast to HPLC analysis, it was possible to separate the platinum complex (tm = 6.3 min) from the free ligand (tm = 4.4 min) using a 50 mM sodium tetraborate solution (pH = 9.3) as the background electrolyte (temperature: 25 °C; UV-detection: 230 nm; capillary: fused silica 64.5 cm × 75 µm, effective length 56 cm; 20 kV). […] The reactions followed pseudo-first order kinetics (R^2 ≥ 0.99) under the experimental conditions that were implemented.
A 50 mM sodium tetraborate solution with a pH of 9.3 (adjusted with 1 M NaOH solution) was used as the background electrolyte (BGE). Prior to the first utilization new capillaries were washed with 1 M NaOH solution (45 min), water (45 min) and BGE (45 min). Samples were injected into the capillary via hydrodynamic mode (50 mbar for 2 s). The capillary was thermostated at 25 °C, whereas the autosampler was kept at 37 °C by an external water bath. The separation voltage was 20 kV and the detection wavelength was set to 230 nm. The required run time was 10 min. The capillary was flushed consecutively with 0.1 M NaOH solution (3 min), water (3 min), and BGE (5 min) before each measurement. For the purpose of stability testing, the complexes were dissolved in methanol and diluted 1:1 (v/v) with water, 1.8% aqueous NaCl solution, or double-concentrated PBS to a final concentration of 1 mM. Every experiment was performed in triplicate. The half-lives are presented as mean ± standard deviation. All of the samples, buffers, and washing solutions were membrane filtered (0.22 µm porosity) and degassed by ultrasonication prior to usage.

Where [6] appears, read: up to a concentration of 100 µM.
Where [7] appears, read: methanol/water 1:1, 1 mM, 37 °C.

Turning to `CC(=O)Oc1ccccc1C(=O)O` [ASA, acetylsalicylic acid], the concentration for half-maximal inhibition (IC50) in data set [1] (Homo sapiens, HT-29) was at least 50 µM; in data set [2] (Homo sapiens, MCF7), at least 50 µM. Further, in data set [1] (setting [6]), the “antiproliferative activity against HT-29” value was “inactive”. Besides, on ovine COX-2 (read-out: COX-2 inhibition), the inhibition at 10 µM amounted to 1%. In data set [2] (setting [6]), the “antiproliferative activity against MCF-7” value is “inactive”. This molecule also registered a COX-1 inhibition at ovine COX-1 of 29.2%.

`N.N.[Cl][Pt][Cl]` [Cisplatin, reference compound]: the results for the IC50 in data set [1] and in data set [2] were 2.6 ± 0.1 µM and 3.7 ± 0.3 µM, respectively.

Consider `C=C.[Cl-].[Cl-].[Cl-].[K+].[Pt+2]` [Zeise’s salt, potassium trichlorido[ethylene]platinate(II)], for which, in data set [3], the “stability in cell culture medium” value was “not stable”. The IC50 in data set [1] and in data set [2] was at least 50 µM throughout. This molecule had a COX-2 inhibition at ovine COX-2 of 11.3%. In addition, the “stability under aqueous conditions” value in data set [4] was “very unstable”. This molecule also gave a COX-1 inhibition on ovine COX-1 of 83.8%.

With “Potassium {trichlorido[η^2-(but-3-en-1-yl)-2-acetoxybenzoate]platinate(II)} [Compound 2a]”, the IC50 in data set [1] was 31.4 ± 0.4 µM; in data set [2], 30.1 ± 1.5 µM. For the same molecule, on ovine COX-2, the COX-2 inhibition was determined as 28.7%. For the same molecule, the COX-1 inhibition on ovine COX-1 is 70.0%. For the same molecule, the “recovery of the intact complex” value in data set [5] (154 mM Cl− in 50% methanol/water, after 168 h) turned out to be 80.3 ± 3.2%. Moreover, the “half-live (τ1/2)” value in data set [5] (PBS pH 7.4 in methanol/water, degraded to Pt-Butene-SA) turned out to be 7.95 ± 0.09 h; in data set [5] (setting [7]), 69.6 ± 3.0 h.

As for “Potassium {trichlorido[η^2-(hex-5-en-1-yl)-2-acetoxybenzoate]platinate(II)} [Compound 4a]”, the results for the IC50 in data set [1] and in data set [2] were 41.4 ± 0.3 µM and 43.7 ± 5.7 µM, respectively. The molecule further registered a COX-2 inhibition on ovine COX-2 of 33.0%. This molecule gave a COX-1 inhibition on ovine COX-1 of 96.6%. In data set [5] (setting [7]), the “half-live (τ1/2)” value is 55.4 ± 4.0 h.

Turning to “Potassium {trichlorido[η^2-(pent-4-en-1-yl)-2-acetoxybenzoate]platinate(II)} [Compound 3a]”, the IC50 was 44.2 ± 3.4 µM in data set [1] and 37.4 ± 2.5 µM in data set [2]. At ovine COX-2, this molecule yielded a COX-2 inhibition of 15.3%. This molecule returned a COX-1 inhibition at ovine COX-1 of 93.8%. Besides, the “half-live (τ1/2)” value in data set [5] (setting [7]) came out at 73.5 ± 4.7 h.

With “Potassium {trichlorido[η^2-(prop-2-en-1-yl)-2-acetoxybenzoate]platinate(II)} [Compound 1a]”, the IC50 in data set [1] is 49.7 ± 1.8 µM; in data set [2], at least 50 µM. This molecule returned a COX-2 inhibition on ovine COX-2 of 17.4%. Also, on ovine COX-1, the COX-1 inhibition was 67.3%. Moreover, the stability in methanol result in data set [5] (methanol, 48 h) is “stable”. For the same molecule, the “half-live (τ1/2)” value in data set [5] (setting [7]) is 0.595 ± 0.01 h.
